Source: patent US7160862B2, “Integrin binding motif containing peptides and methods of treating skeletal diseases” (Acologix, Inc., priority 2000, dated 2007)
Where no end group is shown, it is not given here.

Columns and labels:
[1] = tested on: ovariectomized female Sprague-Dawley rats; assay: Effect on renal phosphate excretion in ovariectomized rats (serum and urine chemistry); type: in vivo, rat; conditions: Ovx rats, D-00006 20 and 200 μg/kg/day
Description: Forty 3-month old virgin female Sprague-Dawley rats (Harlan Sprague Dawley, Inc.) were acclimated for one week prior to beginning the experiments.
One day prior to the initiation of treatments, the animals were anesthetized with a ketamin/xylazine anesthetic mixture, and animals in groups 2–5 were ovariectomized.
Urine was collected in metabolic cages on Day 41. Blood and urine samples were collected for chemistry and bone turnover markers assays at the end of the 41-day treatment period. Prior to urine and blood collections, the animals were placed in metabolic cages and deprived of food for an overnight fast period of 18 hours. Urine samples were collected and the volumes recorded. The urine samples were then centrifuges at approximately 3000×g for 10 minutes in a refrigerated centrifuge. The samples were filtered to remove contaminating sediments.

[2] = tested on: calvariae of four week old mice; assay: In vivo bone formation study (mouse calvaria growth assay); conditions: for bone area of calvaria sections compared to vehicle treated group: s.c. adjacent to calvariae twice a day for five days, D-00006 20 μg/kg/day, FGF-1 12.5 μg/kg/day, excised 15 days after last administration
Description: FGF-1 was purchased from Peprotech Inc. (Rocky Hill, N.J.). RGD-6 (referred to here as D-00006) was synthesized by CS Bio (San Carlos, Calif.) under the instruction of the inventors.
Four week old mice were purchased from SLC Japan Co. Ltd. (Shizuoka, Japan) and randomized to three groups (n=5).
D-00006 (20 μg/kg/day), FGF-1 (12.5 μg/kg/day), or vehicle (saline) was subcutaneously injected into the soft tissues adjacent to the calvariae of the test animals. The daily amount of the samples were divided by two, respectively, and injected twice a day for five days. After 15 days of the last administration, the calvariae were excised and cut in half along the sagittal suture, and provided to the Histomorphometrical analysis.
Calvaria was fixed with 10% neutral-buffered formalin, decalcified with 4.13% EDTA and embedded in paraffin. 4mm-thickness sections were made and stained with hematoxylin and eosin. New bone area was measured using Image-Pro Plus (Media Cybernetics, Silver Spring, Md.).

[3] = tested on: calvaria from 4-days-old mice; assay: Fetal mouse calvarial assay (mouse calvarial organ culture, histomorphometry of new bone area); type: cell-based; conditions: 7-day organ culture of mouse calvaria halves in BGj medium with 0.1% BSA
Description: FGF-1 was purchased from Peprotech Inc. (Rocky Hill, N.J.). RGD-1, 2, 3, 4, 5 and 6 (referred to here as D-00001, D-00002, D-00003, D-00004, D-00005 and D-00006) were provided by Dr. Nomizu (Hokkaido University, Japan).
Pregnant ICR mice were purchased from SLC Japan Co. Ltd. (Shizuoka, Japan).
Mouse calvarial organ culture was performed as described in Mundy G et al. Science 286: 1946–1949, 1999 and Traianedes K et al. Endocrinology 139: 3178–3184, 1998. The calvaria from 4-days-old mice were excised and cut in half along the sagittal suture. Each half of the calvaria was placed on a stainless steel grid in a 12-well tissue culture dish (Asahi Glass Techno Corp., Funabashi, Japan). Each well contained 1.5 ml of BGj medium (Sigma, St. Louis, Mo.) supplemented with 0.1% bovine serum albumin (Sigma) and each compound. FGF-1 was used as a positive control as described by Mundy et al. The medium was changed at day 1 and 4, and the assay was terminated at day 7.
Calvaria was fixed with 10% neutral-buffered formalin, decalcified with 4.13% EDTA and embedded in paraffin. […] sections were made and stained with hematoxylin and eosin. New bone area was measured using Image-Pro Plus (Media Cybernetics, Silver Spring, Md.).

| Substance | serum phosphorus ([1]; 41-day treatment) | total amount of phosphorus in the 18-hour urine collections ([1]; Day 41) | percentage of tubular reabsorption of phosphorus ([1]; derived urine parameter) | phosphate clearance ([1]; derived urine parameter) | efficacy on bone area relative to FGF-1 ([2]; D-00006 20 μg/kg/day vs FGF-1 12.5 μg/kg/day) | bone area of calvaria sections compared to vehicle treated group [2] | ability to enhance bone growth (new bone area) [3] |
| --- | --- | --- | --- | --- | --- | --- | --- |
| TDLQERGDNDISPFSGDGQPFKD [D-00006] | dose-dependent increase | significant decrease | higher | lower | equivalent to that of FGF-1 | significant expansion of bone area | best results |
| ERGDNDISPFSGDGQ (ERGDNDISPFSGDGQ-NH2) [D-00004] | – | – | – | – | – | – | best results |
| FGF-1: fibroblast growth factor-1 purchased from Peprotech Inc., used as a positive control [reference compound] | – | – | – | – | – | significant expansion of bone area | – |
